Data published in PMC5340293 (Bioorganic & medicinal chemistry letters, 2016).
Read-outs that look alike come from different tables or passages of the source.

Experiments:
PAR4 [1] = target: T1, PAR4 (Homo sapiens, UniProt Q96RI0); assay: Progressive fold-shift; format: cell-based; conditions: for mode of PAR4 inhibition: progressive fold-shift, parallel right-ward shift of CRC
T1 sequence (Q96RI0 18-385): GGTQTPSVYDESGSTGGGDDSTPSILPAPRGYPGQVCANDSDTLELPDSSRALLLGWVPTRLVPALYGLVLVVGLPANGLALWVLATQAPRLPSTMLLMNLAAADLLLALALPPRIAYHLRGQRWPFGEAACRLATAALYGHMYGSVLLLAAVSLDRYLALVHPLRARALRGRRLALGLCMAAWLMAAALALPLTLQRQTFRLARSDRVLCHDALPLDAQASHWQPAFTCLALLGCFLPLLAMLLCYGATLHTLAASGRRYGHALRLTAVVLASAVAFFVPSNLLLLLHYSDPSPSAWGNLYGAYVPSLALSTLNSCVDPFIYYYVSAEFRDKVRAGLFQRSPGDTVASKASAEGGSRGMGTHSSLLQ

PAR4 [2] = target: T1, PAR4; assay: PAR4-AP stimulated PAC-1 binding, flow cytometry; format: cell-based
collagen receptor = assay: Platelet aggregation, collagen I activation; format: cell-based, human; conditions: 10 μg/ml collagen I; antagonist at micromolar concentrations
PAR4 [3] = target: T2, PAR4 (Homo sapiens, UniProt Q96RI0); assay: γ-thrombin stimulated PAC-1 binding, flow cytometry; format: cell-based
T2 sequence (Q96RI0 48-385 limits assumed): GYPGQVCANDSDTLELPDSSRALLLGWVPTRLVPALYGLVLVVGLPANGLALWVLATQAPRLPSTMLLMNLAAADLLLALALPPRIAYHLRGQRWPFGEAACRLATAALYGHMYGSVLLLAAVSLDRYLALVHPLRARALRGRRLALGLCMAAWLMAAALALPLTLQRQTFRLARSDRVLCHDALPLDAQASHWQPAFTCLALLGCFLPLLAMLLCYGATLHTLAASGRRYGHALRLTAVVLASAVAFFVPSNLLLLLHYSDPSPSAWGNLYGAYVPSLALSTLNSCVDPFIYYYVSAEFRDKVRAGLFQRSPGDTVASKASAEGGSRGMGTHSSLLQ

PAR4 [4] = target: T1, PAR4; conditions: cited from earlier work

Compound | Schild EC50 log DR-1 versus log [antagonist] plot slope (PAR4 [1]) | mode of PAR4 inhibition (PAR4 [1]) | further results
COc1nn2cc(-c3ccc(Cl)cc3)nc2s1 [4k] | 1.09±1.3 | competitive | –
CNc1nn2cc(-c3c(F)cccc3F)nc2s1 [NHCH3 derivative] | – | – | PAR4 inhibitory activity (PAR4 [2]; result in words): inactive
COc1nn2cc(-c3cc4cc(OC(F)(F)F)ccc4n3C)nc2s1 [compound 5] | – | – | off-target effects on the collagen receptor (collagen I induced aggregation) (collagen receptor): eliminated; γ-thrombin ligand efficiency (LE) (PAR4 [3]): 0.33; fold more potent than 1 against AP (PAR4 [2]): ~ 9 fold
COc1nn2cc(-c3ccc(OC(F)(F)F)cc3)nc2s1 [4n] | 0.94±0.08 | competitive | –
COc1nn2cc(-c3ccc(C(F)(F)F)cc3)nc2s1 [4c] | 0.95±0.09 | competitive | –
COc1cc(OCc2csc(-c3ccccc3)n2)c2cc(-c3cn4nc(OC)sc4n3)oc2c1 [compound 2] | – | – | mode of PAR4 inhibition (PAR4 [4]): mixed competitive/non-competitive
COc1nn2cc(-c3cc4ccccc4o3)nc2s1 [compound 3, 6-(benzofuran-2-yl)-2-methoxyimidazo[2,1-b][1,3,4]thiadiazole] | – | – | off-target effects on the collagen receptor (collagen I induced aggregation) (collagen receptor): devoid
